Experimental data reported in US20200079906A1, “PHOTODYNAMIC THERAPY COMPLEX” (University College Cardiff Consultants Limited, priority 2015, published 2020).
Entries after “also recorded” stand apart in the source; their conditions may differ.

How the values were obtained:
Assay in all cases: Antimicrobial photodynamic protocol, viable cell count after laser exposure
Format in all cases: cell-based
[1] = system: Escherichia coli (NCTC10418); conditions: E. coli; for Antimicrobial activity (Log10 reduction of viable cells): green laser, 3 min laser exposure
Method: (§1) The organisms used in this study were Escherichia coli (NCTC10418) and Staphylococcus epidermidis (ATCC12228), Pseudomonas aeruginosa (NCIMB10548), Methicillin Resistant Staphylococcus aureus (NCTC12493), Streptococcus pyogenes (ATCC19615) and Acinetobacter baumannii (NCIMB9214); they were stored at −80° C. These organisms were subcultured, when needed, on Brain Heart Infusion (BHI) Agar overnight aerobically at 37° C. The plates were then stored at 4° C. for no more than two weeks. Bacterial suspensions used for the experiments were grown in Brain Heart Infusion (BHI) broth after inoculation with a loopful of cells from a single colony on a BHI plate and incubated aerobically for 24 h at 37° C. statically. These overnight cultures were then diluted 1 in 100 in PBS. The resulting bacterial suspension contained approximately 10^6 CFU/mL. Each cell suspension was used to disperse pure PS, e.g. PBAE-TBO, to concentrations of 0.2 mg/mL or PBAEs-PS derivatives to an equivalent PS concentration.
(§2) 200 μL aliquots of the resulting suspension were immediately poured in a GREINER 96 U-BOTTOM well plate. The well plate was then irradiated with a laser light (633 nm) using a 500 mW red laser (RRL-635 nm-500 mW-1080060, Changchun New Industries Optoelectronics, China) or a 500 mW green laser (MGL-FN-532 nm-500 mW-15097031, Changchun New Industries Optoelectronics, China) for different time periods (between 5 sec to 3 min). The red laser was employed for TBO while the green laser was used for RB and ERY.
(§3) After exposure the bacterial cells (L+S+) were counted through serial dilutions and then plating on BHI Agar. Along this test, different experiments were performed including the testing of dark toxicity (labelled with L−S+), samples exposed uniquely to laser light (L+S−) or samples not expose to either laser light and PBAE (L−S−).
(§4) Through the experiment prepared samples, well plates and inoculated plates were immediately covered with aluminium foil to reduce biased measuring results due to exposure of any light besides the laser. All plates were incubated after the experiment for 24 hours at 37° C. All experiments were performed on three independent cultures.

[2] = system: Methicillin Resistant Staphylococcus aureus (NCTC12493); conditions: for Antimicrobial activity (Log10 reduction of viable cells): green laser, 5 sec, MRSA NCTC12493
Method: as §1, §2, §3, §4

[3] = system: Acinetobacter baumannii (NCIMB9214); conditions: TBO series, A. baumannii
Method: as §1, §2, §3, §4

[4] = system: Pseudomonas aeruginosa (NCIMB10548); conditions: TBO series, P. aeruginosa
Method: as §1, §2, §3, §4

[5] = system: Staphylococcus epidermidis (ATCC12228); conditions: TBO series
Method: as §1, §2, §3, §4

[6] = system: Streptococcus pyogenes (ATCC19615); conditions: TBO series
Method: as §1, §2, §3, §4

[7] = L+S+, red laser, 0.2 mg/mL TBO equivalent

Structure (SMILES): O=C1OC2(c3ccccc31)c1cc(I)c(O)c(I)c1Oc1c2cc(I)c(O)c1I [ERY, Erythrosin B]
- Antimicrobial activity (Log10 reduction of viable cells) ([1]; ERY series): exhibit antimicrobial activity; also recorded: not as effective as RB
- Antimicrobial activity (Log10 reduction of viable cells) ([2]; ERY series): exhibit antimicrobial activity; also recorded: not as effective as RB

Structure (SMILES): O=C([O-])c1c(Cl)c(Cl)c(Cl)c(Cl)c1-c1c2cc(I)c(=O)c(I)c-2oc2c(I)c([O-])c(I)cc12.[Na+].[Na+] [RB, Rose Bengal]
- Antimicrobial activity (Log10 reduction of viable cells) ([1]; RB series): exhibit antimicrobial activity
- Antimicrobial activity (Log10 reduction of viable cells) ([2]; RB series): exhibit antimicrobial activity

Structure (SMILES): Cc1cc2nc3ccc(=[N+](C)C)cc-3sc2cc1N.[Cl-] [TBO, Toluidine Blue O]
- Antimicrobial effect of laser exposure (reduction of viable cells) [3, 7]: tendencies of progressive reduction
- Cell reduction without irradiation (dark toxicity) ([3]; L-S+): did not return any cell reduction
- Antimicrobial effect of laser exposure (reduction of viable cells) ([1]; TBO series, L+S+, red laser, 0.2 mg/mL TBO equivalent): tendencies of progressive reduction
- Cell reduction without irradiation (dark toxicity) ([1]; TBO series, L-S+): did not return any cell reduction
- Antimicrobial effect of laser exposure (reduction of viable cells) ([2]; TBO series, L+S+, red laser, 0.2 mg/mL TBO equivalent, MRSA): tendencies of progressive reduction
- Cell reduction without irradiation (dark toxicity) ([2]; TBO series, L-S+, MRSA): did not return any cell reduction
- Antimicrobial effect of laser exposure (reduction of viable cells) [4, 7]: tendencies of progressive reduction
- Cell reduction without irradiation (dark toxicity) ([4]; L-S+): did not return any cell reduction
- Antimicrobial effect of laser exposure (reduction of viable cells) [5, 7]: tendencies of progressive reduction
- Cell reduction without irradiation (dark toxicity) ([5]; L-S+): did not return any cell reduction
- Antimicrobial effect of laser exposure (reduction of viable cells) [6, 7]: tendencies of progressive reduction
- Cell reduction without irradiation (dark toxicity) ([6]; L-S+): did not return any cell reduction
